{"source": "patent US12285520B2", "about": "“Product and manufacturing process for a gum” (McNeil AB, priority 2020, dated 2025)", "origin": "cited, not measured here", "conditions": "nicotine; stated as general knowledge, no experiment described", "data": [{"smiles": "CN1CCCC1c1cccnc1", "note": "(stereo not shown) [nicotine]", "values": [{"measurement": "pKa", "result": "approximately 7.8"}]}]}
